According to patent publication US20110263509A1, “PREPARATION AND USE OF HIGH-PURITY HEMOPARATIDE (HPTH-1-37) FOR THE TREATMENT OF INFLAMMATORY SCALING DISEASES OF THE SKIN” (Haemopep Pharma GmbH, priority 2008, published 2011):

Tests used:
[1] = Solubility, dissolution time (specification); format: physicochemical
[2] = Storage stability of the lyophilized preparation at +4° C., HPLC comparison of fresh material and material stored nine months; format: physicochemical; conditions: lyophilized form
From the text: FIGS. 4A and 4B disclose HPLC chromatograms of hPTH-1-37. […] FIG. 4B is a chromatogram of hPTH-1-37 stored for nine months. […] Further, FIG. 5 discloses a comparison between the HPLC chromatograms of freshly prepared hPTH-1-37 (A) and a commercially obtainable preparation.

[3] = Stability of the active ingredient in hydrophilic ointment (cream) formulation; format: physicochemical; conditions: hydrophilic ointment DAB base; except for methionine-oxidized metabolites
From the text: In one embodiment of the invention, the hemoparatide (hPTH-1-37) or its derivatives are used for preparing a medicament in different galenic application forms, especially as a lyophilizate. In one embodiment of this medicament, a hydrophilic ointment, especially according to the German Pharmacopoeia, is used as a galenic application base. […] These oxidized metabolites also occur as natural PTH forms in the blood plasma, but can be avoided by working under a nitrogen atmosphere, and are free from side effects, being naturally occurring endogenous derivatives.
Hemoparatide was incorporated into this base in concentrations of 0.03% by weight, 0.1% by weight and 0.3% by weight.
These oxidized metabolites also occur as natural PTH forms in the blood plasma, but can be avoided by working under a nitrogen atmosphere, and are free from side effects, being naturally occurring endogenous derivatives.

[4] = Phase I trial, tolerability of subcutaneous injection in aqueous solution; format: in vivo; conditions: humans

Structure (SMILES)	Solubility, dissolution time [1]	Methionine-oxidized metabolites after storage (stability) [2]	Stability of active ingredient in formulation [3]	Tolerability [4]
CC[C@H](C)[C@H](NC(=O)[C@H](CCC(=O)O)NC(=O)[C@H](CO)NC(=O)[C@@H](NC(=O)[C@@H](N)CO)C(C)C)C(=O)N[C@@H](CCC(N)=O)C(=O)N[C@@H](CC(C)C)C(=O)N[C@@H](CCSC)C(=O)N[C@@H](Cc1c[nH]cn1)C(=O)N[C@@H](CC(N)=O)C(=O)N[C@@H](CC(C)C)C(=O)NCC(=O)N[C@@H](CCCCN)C(=O)N[C@@H](Cc1c[nH]cn1)C(=O)N[C@@H](CC(C)C)C(=O)N[C@@H](CC(N)=O)C(=O)N[C@@H](CO)C(=O)N[C@@H](CCSC)C(=O)N[C@@H](CCC(=O)O)C(=O)N[C@@H](CCCNC(=N)N)C(=O)N[C@H](C(=O)N[C@@H](CCC(=O)O)C(=O)N[C@@H](Cc1c[nH]c2ccccc12)C(=O)N[C@@H](CC(C)C)C(=O)N[C@@H](CCCNC(=N)N)C(=O)N[C@@H](CCCCN)C(=O)N[C@@H](CCCCN)C(=O)N[C@@H](CC(C)C)C(=O)N[C@@H](CCC(N)=O)C(=O)N[C@@H](CC(=O)O)C(=O)N[C@H](C(=O)N[C@@H](Cc1c[nH]cn1)C(=O)N[C@@H](CC(N)=O)C(=O)N[C@@H](Cc1ccccc1)C(=O)N[C@H](C(=O)N[C@@H](C)C(=O)N[C@@H](CC(C)C)C(=O)O)C(C)C)C(C)C)C(C)C [hPTH-1-37]	≦2 min	Only very small amounts of methionine-oxidized metabolites can be detected	very stable	
CC[C@H](C)[C@H](NC(=O)[C@H](CCC(=O)O)NC(=O)[C@H](CO)NC(=O)[C@@H](NC(=O)[C@@H](N)CO)C(C)C)C(=O)N[C@@H](CCC(N)=O)C(=O)N[C@@H](CC(C)C)C(=O)N[C@@H](CCSC)C(=O)N[C@@H](Cc1c[nH]cn1)C(=O)N[C@@H](CC(N)=O)C(=O)N[C@@H](CC(C)C)C(=O)NCC(=O)N[C@@H](CCCCN)C(=O)N[C@@H](Cc1c[nH]cn1)C(=O)N[C@@H](CC(C)C)C(=O)N[C@@H](CC(N)=O)C(=O)N[C@@H](CO)C(=O)N[C@@H](CCSC)C(=O)N[C@@H](CCC(=O)O)C(=O)N[C@@H](CCCNC(=N)N)C(=O)N[C@H](C(=O)N[C@@H](CCC(=O)O)C(=O)N[C@@H](Cc1c[nH]c2ccccc12)C(=O)N[C@@H](CC(C)C)C(=O)N[C@@H](CCCNC(=N)N)C(=O)N[C@@H](CCCCN)C(=O)N[C@@H](CCCCN)C(=O)N[C@@H](CC(C)C)C(=O)N[C@@H](CCC(N)=O)C(=O)N[C@@H](CC(=O)O)C(=O)N[C@H](C(=O)N[C@@H](Cc1c[nH]cn1)C(=O)N[C@@H](CC(N)=O)C(=O)N[C@@H](Cc1ccccc1)C(=O)N[C@H](C(=O)N[C@@H](C)C(=O)N[C@@H](CC(C)C)C(=O)O)C(C)C)C(C)C)C(C)C [highly pure hemoparatide]	≦2 min	only a small amount of methionine-oxidized metabolites appears		high tolerability
